In patent US10596160B2, “Compositions, methods and uses for the treatment of diabetes and related conditions by controlling blood glucose level” (PHARNEXT, priority 2012, dated 2020):

What was measured:
[1] = test system: TNFα-induced insulin resistant 3T3-L1 differentiated adipocytes; experiment: Glucose uptake in TNFα-induced insulin resistant 3T3-L1 differentiated adipocytes; assay type: cell-based; conditions: for enhancement of glucose uptake: drug alone, vs non-treated insulin-resistant cells (TNFα); for enhancement of glucose uptake, combination with metformin: ifenprodil 3.3 nM and metformin 100 μM, combined or alone at the same concentrations
Protocol: 3T3L1 fibroblasts were maintained in DMEM 4.5 g/L glucose supplemented with 5% calf serum donor, 5% newborn calf serum, 100 U/mL penicillin, and 100 μg/mL streptomycin at 37° C. under a 10% CO2 atmosphere. Cells were grown on 24-well plates at a density of 2560 cells/well in 0.5 mL of growth medium (DMEM 4.5 g/L glucose supplemented with 10% FCS, 100 U/mL penicillin, and 100 μg/mL streptomycin). […] Fresh media were replaced after two days.
Glucose uptake was measured by quantification of incorporated radiolabeled glucose, after an incubation step with 2-deoxy-D[1,2^3H] glucose for 5 min. Glucose uptake was arrested by two washing steps in ice-cold PBS 1×, then were solubilized in 0.1N NaOH for 30 min. Cell-associated radioactivity was then counted using a MicroBeta counter after adding 600 μL per well of scintillant (Optiphase SuperMix3).
In parallel, protein quantification was determined by a colorimetric assay derived from the Lowry method. Results are expressed in nmol of glucose incorporated/5 mn/mg of protein and in % of control or basal condition (100%).

[2] = test system: human primary diabetic myotubes; experiment: Glucose uptake in human diabetic myotube primary cultures; assay type: cell-based; conditions: myotubes from a diabetic patient, 24 h pre-treatment
Protocol: The myotubes from a diabetic patient were grown on HAM's F10-based media (Sigma, ref. N6908) supplemented with 15% of fetal bovine serum, 1 mM glutamine.
Myoblasts were seeded at 380,000 cells/well in 12-well plates. After 2 days of proliferation, the cells were placed in reduced serum conditions (2% horse serum) to induce differentiation. The myotubes were used after 5 days of differentiation.
Dulbecco's modified Eagle's medium (DMEM)-based media (Gibco, ref. 31053-028) supplemented with 2% heat-inactivated horse serum, 2% Glutamax (Gibco, ref. 35050) and washed for glucose uptake assays. Compounds were dissolved in DMSO to reach the desired final concentration prior to use.
The differentiated myotubes were treated for 24 h with the compositions of the invention before the assay.
Before the initiation of glucose uptake, the cells were deprived of serum and glucose. A deprivation was first performed in DMEM media containing reduced glucose (1 g/L) and no serum. After adding the compounds at the desired concentrations, the cells were incubated at 37° C. during 2 h30. […] A subsequent glucose and serum deprivation was performed in HBS buffer at 37° C. for 2 hours. The cells were treated with a mixture of 2-[^3H]deoxyglucose 10 Ci/mM+2-deoxy-D-glucose at 10 μM for 30 min. […] The cell lysates were transferred into scintillation vials for the measurement of radioactivity with a MicroBeta counter.

[3] = test system: beta pancreatic INS-1 cells; experiment: Prevention of beta cells apoptosis (ssDNA apoptosis detection kit); assay type: cell-based; parameters: concentration or dose not given beside the values; conditions: 1 h pre-incubation then 24 h in apoptotic conditions, drugs tested alone
Protocol: The beta pancreatic INS-1 cells have been selected for this study. The cells are cultured in complete medium, RPMI 1640 10 mM glucose supplemented with 1 mM sodium pyruvate, 50 μM 2-mercaptoethanol, 2 mM glutamine, 10 mM HEPES, 100 IU/mL penicillin, 100 μg/mL streptomycin and 10% heat-inactivated fetal calf serum (FCS), as described by Asfari et al. (23). INS-1 cells are plated (4.5×10^4 cells/well) in 96-well poly-ornithine coated plates and cultured at 37° C. in a humidified atmosphere of 95% air/5% CO2. The day after, cells are pre-incubated with the tested molecules for 1 h. Then, after a medium change, cells are cultured for 24 h in a medium containing the tested molecules and 30 mM glucose, 0.05 mM myristic acid, 25 ng/mL INF, 25 ng/mL TNF and 5 ng/mL IL.
The efficacy of compounds to prevent apoptosis is then evaluated by the highly specific apoptosis detection kit from Chemicon (Ref. APT225). This procedure is based on the detection of single-stranded DNA (ssDNA) which is a specific marker of apoptotic cells (24).
Results are expressed in optical density (OD) arbitrary unit and % of reduction of the apoptosis induced by apoptotic condition. Following a Dunnett t-test, all compounds showing a significant decrease in % of apoptotic cells compared to apoptotic control conditions are considered active.

hepatocytes = experiment: Glucose production by hepatic cells; assay type: cell-based, rat; conditions: long-term, 0.01 μM (10 nM)
Protocol: Hepatocytes are isolated from 24 h-fasted male Wistar rats (200-250 g body weight) by ex situ liver perfusion in the presence of collagenase. Cell viability is validated by a trypan blue exclusion test. […] After plating, the medium is removed and cells are cultured for 16 h in RPMI medium without glucose (supplemented with the tested drugs for long-term evaluation). The following day, hepatic glucose production is assessed in Krebs-Ringer Bicarbonate HEPES buffer (KRBH; pH 7.4) in the presence of the neoglucogenic substrates (lactate 10 mM and pyruvate 1 mM) and the tested molecules for 4 h (short-term).
Supernatants are collected and glucose concentrations are determined using a glucose oxidase kit (Instrumentation Laboratory 0018250840). In parallel, protein quantification is performed using the colorimetric Lowry method.
Results are expressed in nmol glucose/mg protein and % of control condition (KLP: KRBH containing lactate and pyruvate).

CC(C(O)c1ccc(O)cc1)N1CCC(Cc2ccccc2)CC1 (stereo not shown) [ifenprodil]
enhancement of glucose uptake ([1]; 10 nM): improvement
enhancement of glucose uptake ([1]; 100 nM): improvement
enhancement of glucose uptake ([1]; 1 μM): +140%
enhancement of glucose uptake, combination experiment ([1]; drugs combined at a dose as low as 3.3 nM, or used individually, vs TNFα cells, Dunnett's test): No significant effect
enhancement of glucose uptake, combination with metformin ([1]; vs TNFα cells): No significant effect
enhancement of glucose uptake, combination with metformin ([1]; vs TNFα cells, listed as Ifenprodil): does not lead to any significant improvement
enhancement of glucose uptake ([2]; 0.1 μM): improvement
enhancement of glucose uptake ([2]; 1 μM): improvement
Percentage of apoptosis reduction [3]: 54%
reduction of glucose production (hepatocytes): −22%
